# Data published in ChEMBL document CHEMBL1122830, “N-(Phosphonoacetyl)amino phosphonates. Phosphonate analogues of N-(phosphonoacetyl)-L-aspartic acid (PALA)” (1985).
# The source made the active and inactive calls. No cut-off for these calls is given here.
# Test system: KB
# Assay: Inhibitory activity against human KB cell line at the dose range of 1-400 (ug/mL); NA=Not active
# Format: functional, cell-based
# Details: not given
row,SMILES,ID50
1,O=C(CP(=O)(O)O)NC1(P(=O)(O)O)CCCC1,inactive
2,CC(C)(NC(=O)CP(=O)(O)O)P(=O)(O)O,inactive
3,O=C(O)CC(NC(=O)CP(=O)(O)O)P(=O)(O)O (stereo unspecified),inactive
4,O=C(CP(=O)(O)O)NC(C1CCC1)P(=O)(O)O (stereo unspecified),inactive
5,O=C(CP(=O)(O)O)NC(CP(=O)(O)O)C(=O)O (stereo unspecified),inactive
6,CCOP(=O)(OCC)C(N)C1CCCCC1 (stereo unspecified),inactive
7,O=C(O)CC(NC(=O)CP(=O)(O)O)C(=O)O (stereo unspecified),inactive
8,CCOP(=O)(OCC)C(N)C1CCC1 (stereo unspecified),inactive
9,O=C(O)CCC(NC(=O)CP(=O)(O)O)P(=O)(O)O (stereo unspecified),inactive
10,O=C(O)CCCC(NC(=O)CP(=O)(O)O)P(=O)(O)O (stereo unspecified),inactive
11,CCCC(NC(=O)CP(=O)(O)O)P(=O)(O)O (stereo in doubt; form 1),inactive
12,CCOP(=O)(OCC)C(N)CCC(=O)OC (stereo unspecified),inactive
13,O=C(CP(=O)(O)O)NC(C1CC1)P(=O)(O)O (stereo unspecified),inactive
14,CC(NC(=O)CP(=O)(O)O)P(=O)(O)O (stereo unspecified),inactive
15,CCOC(=O)CCCC(N)P(=O)(OCC)OCC (stereo unspecified),inactive
16,CC(C)C(NC(=O)CP(=O)(O)O)P(=O)(O)O (stereo unspecified),inactive
17,O=C(CP(=O)(O)O)NCCCP(=O)(O)O,inactive
18,CCOP(=O)(OCC)C(N)C1CC1 (stereo unspecified),inactive
19,O=C(CP(=O)(O)O)NC(c1ccccc1)P(=O)(O)O (stereo unspecified),inactive
20,O=C(CP(=O)(O)O)NC(C1CCCCC1)P(=O)(O)O (stereo unspecified),inactive
21,CC(C)(C)C(NC(=O)CP(=O)(O)O)P(=O)(O)O (stereo unspecified),inactive
22,CCCC(NC(=O)CP(=O)(O)O)P(=O)(O)O (stereo in doubt; form 2),inactive
23,CCP(=O)(O)CNC(=O)CP(=O)(O)O,inactive
24,O=C(CP(=O)(O)O)NC(C1CCCC1)P(=O)(O)O (stereo unspecified),inactive
25,CCOP(=O)(OCC)C(N)C1CCCC1 (stereo unspecified),inactive

# Test system: KB
# Assay: Inhibitory activity against human KB cell line
# Format: functional
# Details: read-out: ID50 (the source's name)
row,SMILES,IC50 [µg/mL]
1,CCOP(=O)(OCC)C(N)C(C)(C)C.O=C(O)C(=O)O (stereo unspecified),240
